Reference: article PMC5794259, “Novel ATP-cone-driven allosteric regulation of ribonucleotide reductase via the radical-generating subunit” (eLife, 2018)
Where “and” joins values, the source holds several entries; their conditions need not be identical. Identical values can stand only once.

B1: Leeuwenhoekiella blandensis NrdBi (wild type NrdB, radical-generating subunit of class I ribonucleotide reductase) (enzyme, UniProt A3XHF9 1-427, looked up)
chain: MSSQEIKKIIKRDYSTAPFVLEKITNAIANAMAALGHGSEQDAKLISMQVYESLLNNKEQESEYIPTVEQVQDMVEDKLMSSEFHDVAKAYIIYRNKRALERKTNIFEKRINLKPYEYPELNEYVAAIRHSYWIHTEFNFTSDIQDFKTGLSEVERSAIKNTMLAISQIEVAVKTFWGDVHHRLPKPEIAAVGATFAESEVRHHDAYSHLLEILGLNEEFKELKKKPVIMKRVHYLETSLKHAKSDDDREYTESILLFALFIEHVSLFSQFLIIMAFNKHKNMLKGISNAVEATSKEEQIHGDFGVDIINIIKKENPEWFDEEHNNLIKEMCLNSFEAESKVVDWIFEKGELDFLPKAVINEFLKNRFNKSLEAIGLEKLFDIDEALLQETEWFDDEIIGTKHGDFFVKRSINYSKRTQSITSDDLF
notes: NrdBi, radical-generating subunit of the class I RNR of Leeuwenhoekiella blandensis sp. nov. strain MED217; GenBank EAQ51288; amplified from genomic DNA with primers from the start codon to the stop codon; ATP-cone 1-103, linker 104-106, core 107-398, C-terminus 399-427; pET-28a(+) construct with N-terminal hexahistidine tag and thrombin site; Oligomeric state depends on nucleotide: dimer with …

Legend:
[1] = molecular target: L. blandensis RNR, a-site (NrdB-linked ATP-cone) (Leeuwenhoekiella blandensis, UniProt A3XHF9); assay: Enzyme activity assay with wild type NrdB (overall activity regulation, a-site); assay type: biochemical; conditions: for interaction with the a-site (effect on GDP reduction): 2 mM nucleotide, s-site saturating dTTP (2 mM), 4 µM NrdA and 1 µM NrdB
Protocol: (§1) Enzyme assays were performed at room temperature in 50 mM Tris-HCl at pH 8 in volumes of 50 μl. Reaction conditions, giving maximal activity were determined experimentally. […] Mixtures of 0.5 μM NrdA and 2 μM wild type NrdB or NrdB∆99 (for determination of s-site KL) (Figure 3a–b) or 0.5 μM of NrdB and 2 uM NrdA (for determination of a-site KL), (Figure 3c–f) were used. Some components were explicitly varied in specific experiments. Generally, 0.8 mM CDP was used as substrate. […] When dTTP was used as an s-site effector, 0.5 mM or 0.8 mM GDP was used as substrate. In four substrate assays, the four substrates CDP, ADP, GDP and UDP were simultaneously present in the mixture at concentrations of 0.5 mM each. The substrate mixture was added last to start the reactions. Certain assays were performed in the presence of Mn(CH3COO)2 or FeNH4(SO4): 20 μM of the indicated metal was added to 10 μM NrdB or NrdB∆99 protein, incubated for 10 min, mixed with NrdA and added to the reaction mixture.
(§2) Enzyme reactions were incubated for 10–30 min and then stopped by the addition of methanol. The chosen incubation time gave a maximum substrate turnover of 30%. […] Compound identification was achieved by comparison with injected standards. Relative quantification was obtained by peak height measurements in the chromatogram (UV absorbance at 271 nm) in relation to standards. Specific activities of either NrdA (Figure 2a–b) or NrdB (Figure 2c–f) were determined. Specific activities varied between protein preparations. In some cases the data was standardized to activity percent, where 100% was determined as maximum enzyme activity in a specific condition.
(§3) From a direct plot of activity versus concentration of effector, the KL values for binding of effectors to the s-site and the a-site, were calculated in SigmaPlot using the equation: V=Vmax×[dNTP]/(KL+[dNTP]) and Ki for non-competitive dATP inhibition at NrdB was calculated in Sigmaplot using the equation: V=Vmax/(1+[dNTP]/Ki)

NrdB [2] = molecular target: T1, NrdB (Leeuwenhoekiella blandensis, UniProt A3XHF9); assay: GEMMA analysis of NrdB oligomers; conditions: for effect on NrdB oligomer equilibrium: 50 µM nucleotide, 0.1 mg/ml NrdB (~2 µM)
Protocol: In GEMMA, biomolecules are electrosprayed into gas phase, neutralized to singly charged particles, and the gas phase electrophoretic mobility is measured with a differential mobility analyzer. The mobility of an analyzed particle is proportional to its diameter, which therefore allows for quantitative analysis of the different particle sizes contained in a sample ([Kaufman et al., 1996]). The GEMMA instrumental setup and general procedures were as described previously ([Rofougaran et al., 2008]). NrdA, NrdB and NrdB∆99 proteins were equilibrated by Sephadex G-25 chromatography into a buffer containing 100 mM ammonium acetate, pH 7.8. In addition, 2 mM DTT was added to the NrdA protein solutions to increase protein stability. Prior to GEMMA analysis, the protein samples were diluted to a concentration of 0.025–0.1 mg/ml in a buffer containing 20 mM ammonium acetate, pH 7.5, 0.005% (v/v) Tween 20, nucleotides (when indicated), and magnesium acetate (equimolar to the total nucleotide concentration), incubated for 5 min at room temperature, centrifuged and applied to the GEMMA instrument. Protein concentrations higher than normally recommended for GEMMA were needed to see the larger oligomeric complexes and the experiments to measure NrdA-NrdB interactions were run at as low flow rate as possible (driven by 1.4 Psi pressure) to minimize false interactions that may appear with elevated protein concentration if the flow-rate recommended by the manufacturer is used (3.7 Psi). Most of our experiments were performed with a flow rate driven by 2 Psi.

s-site in NrdA = molecular target: T2, s-site in NrdA (Leeuwenhoekiella blandensis, UniProt A3XHF8); assay: Enzyme activity assay, CDP reduction, effector titration with NrdB∆99 (s-site); assay type: biochemical; conditions: 0.5 µM NrdA and 2 µM NrdB∆99, read-out: KL (s-site), concentration of allosteric effector that gives half maximal enzyme activity
T2 sequence (A3XHF8 1-600): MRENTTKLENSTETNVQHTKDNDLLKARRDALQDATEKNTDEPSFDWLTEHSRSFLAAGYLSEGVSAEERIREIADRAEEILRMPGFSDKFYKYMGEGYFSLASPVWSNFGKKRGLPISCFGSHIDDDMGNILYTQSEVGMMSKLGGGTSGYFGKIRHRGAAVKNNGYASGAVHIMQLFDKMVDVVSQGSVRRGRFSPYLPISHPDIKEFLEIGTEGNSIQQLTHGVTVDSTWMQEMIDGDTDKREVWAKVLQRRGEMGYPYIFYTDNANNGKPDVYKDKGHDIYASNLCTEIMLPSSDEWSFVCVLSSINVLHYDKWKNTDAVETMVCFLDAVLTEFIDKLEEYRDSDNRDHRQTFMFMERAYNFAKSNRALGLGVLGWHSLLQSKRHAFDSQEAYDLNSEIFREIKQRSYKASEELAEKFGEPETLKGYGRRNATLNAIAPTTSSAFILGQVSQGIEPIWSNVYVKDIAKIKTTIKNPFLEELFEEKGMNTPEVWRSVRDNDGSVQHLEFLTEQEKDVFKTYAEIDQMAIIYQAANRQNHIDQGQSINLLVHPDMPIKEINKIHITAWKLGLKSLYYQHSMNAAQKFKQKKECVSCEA
T2 sequence (A3XHF9 100-427 partner): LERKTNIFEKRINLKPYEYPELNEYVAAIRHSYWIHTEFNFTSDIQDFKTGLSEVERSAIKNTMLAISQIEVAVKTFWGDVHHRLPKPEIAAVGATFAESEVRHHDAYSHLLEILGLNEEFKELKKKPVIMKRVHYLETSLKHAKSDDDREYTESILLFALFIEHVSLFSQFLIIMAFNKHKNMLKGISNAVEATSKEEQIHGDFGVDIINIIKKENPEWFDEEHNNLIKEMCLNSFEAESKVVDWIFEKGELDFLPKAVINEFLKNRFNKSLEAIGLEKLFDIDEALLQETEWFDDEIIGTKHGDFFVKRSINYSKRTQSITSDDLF
Protocol: Enzyme assays were performed at room temperature in 50 mM Tris-HCl at pH 8 in volumes of 50 μl. Reaction conditions, giving maximal activity were determined experimentally. […] Mixtures of 0.5 μM NrdA and 2 μM wild type NrdB or NrdB∆99 (for determination of s-site KL) (Figure 3a–b) or 0.5 μM of NrdB and 2 uM NrdA (for determination of a-site KL), (Figure 3c–f) were used. Some components were explicitly varied in specific experiments. Generally, 0.8 mM CDP was used as substrate. […] When dTTP was used as an s-site effector, 0.5 mM or 0.8 mM GDP was used as substrate. […]
Enzyme reactions were incubated for 10–30 min and then stopped by the addition of methanol. […] Relative quantification was obtained by peak height measurements in the chromatogram (UV absorbance at 271 nm) in relation to standards. Specific activities of either NrdA (Figure 2a–b) or NrdB (Figure 2c–f) were determined. […] In some cases the data was standardized to activity percent, where 100% was determined as maximum enzyme activity in a specific condition.
as §3

NrdB [3] = molecular target: T1, NrdB; assay: Isothermal titration calorimetry (ITC), nucleotide binding to NrdB; conditions: for N (binding stoichiometry): per NrdB monomer, for dATP kept constant N = 2, 59% active protein
Protocol: Isothermal titration calorimetry (ITC) experiments were carried out on a MicroCal PEAQ-ITC system (Malvern Instruments Ltd) in a buffer containing 25 mM HEPES (pH 7.65), 150 mM NaCl, and 10% glycerol, 2 mM tris(2-carboxyethyl)phosphine, and 5 mM MgCl2. Measurements were done at 10°C. The initial injection volume was 0.4 μl over a duration of 0.8 s. All subsequent injection volumes were 2–2.5 μl over 4–5 s with a spacing of 150 s between the injections. Data for the initial injection were not considered. For dATP binding analysis, the concentration of NrdB in the cell was 12 µM and dATP in syringe 120 or 140 µM. Reverse titrations were performed with 113 µM NrdB in the syringe and 12 or 30 µM dATP in the cell. For titration of dATP into NrdB∆99, protein concentration in the cell and dATP concentration in the syringe were 50 µM and 900 µM respectively. […] For titration of ATP into NrdB, cell and syringe concentrations were 50 and 1600 µM respectively. The data were analyzed using the built-in one set of sites model of the MicroCal PEAQ-ITC Analysis Software (Malvern Instruments Ltd). A fixed ligand/protein stoichiometry of 2 was used for dATP to NrdB titrations. Standard deviations in thermodynamic parameters, N and Kd were estimated from the fits of three different titrations.

[4] = test system: L. blandensis class I RNR; assay: Four-substrate activity assay, allosteric specificity regulation; assay type: biochemical, Leeuwenhoekiella blandensis; conditions: all four substrates 0.5 mM each, effector 2 mM, 1 µM NrdB and 4 µM NrdA
Protocol: as §1, §2

[5] = molecular target: the molecule itself; assay: SEC; with ATP; Superdex 200 10/300 GL at room temperature; 50 mM Tris-HCl pH 7.6, 150 mM KCl, 10 mM MgCl2; NrdB 10 µM
[6] = molecular target: the molecule itself; assay: GEMMA (gas-phase electrophoretic macromolecule analysis); with 50 µM dATP and equimolar magnesium acetate; 20 mM ammonium acetate pH 7.5, 0.005% Tween 20; NrdB 0.1 mg/ml (~2 µM) or NrdB∆99

Row | Molecule | interaction with the a-site (effect on GDP reduction) [1] | effect on NrdB oligomer equilibrium (NrdB [2]) | -TΔS (NrdB [3]; 10°C) [kJ/mol] | ΔG (NrdB [3]; 10°C) [kJ/mol] | ΔH (NrdB [3]; 10°C) | N (binding stoichiometry) (NrdB [3]; 10°C) | effect of s-site effector on substrate reduction [4] | further results
1 | Nc1ncnc2c1ncn2[C@H]1C[C@H](O)[C@@H](COP(=O)(O)O)O1 [dAMP] | no effect |  |  |  |  |  |  | 
2 | Nc1ncnc2c1ncn2[C@H]1C[C@H](O)[C@@H](COP(=O)(O)OP(=O)(O)OP(=O)(O)O)O1 [dATP] |  | dramatically shifted the equilibrium towards tetramers β4 | 47 ± 10 | -33 | -79 kJ/mol and -79 ± 10 kJ/mol | 2 |  | EC50 (NrdB [2]; GEMMA, 2 Psi, NrdB (~1 μM), read-out: concentration at which NrdB tetramers reach half-maximum mass concentration): ~10 µM; Ki [1]: 20 µM; concentration at which inhibitory ([1]; CDP reduction, 0.5 µM NrdA and 2 µM wild type NrdB, activates at low concentrations): ≥ 30 µM; EC50 (s-site in NrdA): 1.4 µM; Kd (NrdB [3]; 10°C, one-set-of-sites model): 1 ± 0.2 µM
3 | Nc1nc2c(ncn2[C@H]2C[C@H](O)[C@@H](COP(=O)(O)OP(=O)(O)OP(=O)(O)O)O2)c(=O)[nH]1 [dGTP] |  |  |  |  |  |  | stimulated the reduction of ADP and GDP | 
4 | Cc1cn([C@H]2C[C@H](O)[C@@H](COP(=O)(O)OP(=O)(O)OP(=O)(O)O)O2)c(=O)[nH]c1=O [dTTP] |  |  |  |  |  |  | stimulated the reduction of GDP | 
5 | dADP | found to interact | induced formation of NrdB tetramers, although less efficiently than with dATP | 77 ± 8 | -26 | -103 kJ/mol and -103 ± 9 kJ/mol | 2.1 and 2.1 ± 0.2 |  | effect of titration on enzyme activity ([1]; CDP reduction (3 mM CDP), 2 µM NrdA and 0.5 µM NrdB): inhibited the enzyme activity, although less strongly than dATP; lower affinity compared to dATP (NrdB [3]; from Kd, ITC): 15 fold
6 | B1 |  |  |  |  |  |  |  | stoichiometry N [5]: 2; stoichiometry N [6]: 4
